Marks after values point to notes of the source that are not given here.
Tests used:
patients with T2DM [1] = experiment: Example 1 study: gastric emptying (acetaminophen PK); type: in vivo, human
patients with T2DM [2] = experiment: Example 1 study: HbA1c; type: in vivo, human
Description: This study is a Phase 1, single-site, patient- and investigator-blinded, placebo controlled, randomized, non-crossover, multiple-ascending dose study with titration in each cohort in patients with T2DM to investigate the safety, tolerability, PK, and PD of the GLP-1/glucagon co-agonist peptide of SEQ ID NO:1 (Compound 1) administered as multiple SC injections QW for 12 weeks in Cohort 1 and 16 weeks in Cohort 2.
The first dosing regimen (also referred to as Cohort 1) is 12 weeks in duration and requires dose increments of 1.5 mg starting from 1.5 mg: • 1.5 mg QW Compound 1 for 4 weeks; • 3.0 mg QW Compound 1 for 4 weeks; and • 4.5 mg QW Compound 1 for 4 weeks.
The second dosing regimen (also referred to as Cohort 2) is 16 weeks in duration and requires dose increments of 2 mg starting from 2 mg: • 2 mg QW Compound 1 for 3 weeks; • 4 mg QW Compound 1 for 3 weeks; • 6 mg QW Compound 1 for 3 weeks; • 8 mg QW Compound 1 for 3 weeks; and • 10 mg QW Compound 1 for 4 weeks.
In respect of Cohort 1, HbA1c levels are determined at baseline and Days 1, 29, 57 and 78. In respect of Cohort 2, HbA1c is measured at baseline and Days 1, 22, 43, 64, 85 and 106.

patients with T2DM [3] = experiment: Example 1 study: adverse events; type: in vivo
Description: Investigators are responsible for monitoring the safety of patients who have entered this study. The investigator is responsible for the appropriate medical care of patients during the study. Investigators document their review of each laboratory safety report. The investigator remains responsible for following, through an appropriate health care option,
AEs that are serious or otherwise medically important, considered related to Compound 1 or the study, or that caused the patient to discontinue Compound 1 before completing the study. The patient is followed until the event resolves, stabilizes with appropriate diagnostic evaluation, or is reasonably explained. The frequency of follow-up evaluations of the AE is left to the discretion of the investigator.
The investigator records all relevant AE and SAE information. After receiving consent from the patient, study site personnel record the occurrence and nature of each patient's preexisting conditions, including clinically significant signs and symptoms of the disease under treatment in the study. Additionally, site personnel record any change in the condition(s) and the occurrence and nature of any AEs.
The investigator interprets and document whether or not an AE has a reasonable possibility of being related to study treatment, or a study procedure, taking into account the disease, concomitant treatment, or pathologies.
A “reasonable possibility” means that there is a potential cause and effect relationship between Compound 1, study device, and/or study procedure and the AE. Planned surgeries should not be reported as AEs unless the underlying medical condition has worsened during the course of the study.
A Serious Adverse Event (SAE) is any AE from this study that results in one of the following: • death • initial or prolonged inpatient hospitalization • a life-threatening experience (i.e., immediate risk of dying) • persistent or significant disability/incapacity • congenital anomaly/birth defect • important medical events that may not be immediately life-threatening or result in death or hospitalization but may jeopardize the patient or may require intervention to prevent one of the other outcomes listed in the definition above.
All AEs occurring after signing the ICF are recorded and assessed for serious criteria.

[4] = Example 1 study: pharmacokinetics, population PK modeling; conditions: for AUC(0-168)ss, geometric mean (CV %) / Cmax, ss, geometric mean: model-predicted steady state
Description: Up to two samples may be collected at additional time points during the study if warranted and agreed upon between both the investigator and sponsor.
All available PK data is utilized for model development.

patients with T2DM [5] = experiment: Example 1 study: appetite analysis (VAS); type: in vivo, human
Description: To explore the effects of Compound 1 on meal intake and appetite sensation, subjects are asked to rate their appetite sensations using a 100-mm visual analogue scale
(VAS) for parameters of hunger, fullness, satiety, and prospective food consumption in the fasted state while inpatient as well as on scheduled outpatient visits. The VAS is a validated tool to assess appetite sensation parameters (Flint et al., Int J Obes Relat Metab Disord., 2000; 24(1):38-48). The VAS is presented as a 10-cm (100-mm) line, anchored by verbal descriptors, usually “extremely” and “not at all.” Subjects are required to rate their subjective sensations on four 100-mm scales combined with questions similar to the following: • “How hungry do you feel?” • “How satisfied do you feel?” • “How full do you feel?” • “How much do you think you could eat?”
Overall appetite score is calculated as the average of the 4 individual scores: satiety plus fullness plus (100−prospective food consumption) plus (100−hunger)/4 (van Can et al., Int J Obes (Lond). 2014; 38(6):784-793). The higher overall appetite score indicates less appetite, and the lower score indicates more appetite.
In respect of […], the satiety VAS (after fasting) is completed at baseline and Days 1, 29, 57, 78 and 80.
In respect of […], the satiety VAS (after fasting) is completed at baseline and Days 1, 22, 43, 64, 85, 106 and 108.
When the satiety VAS assessment coincides with the MMTT, it is performed pre-meal and 1 hour and 4 hours post MMTT.

[6] = both treatment groups, over dosing periods

Structure (SMILES): CC(C)C[C@H](NC(=O)[C@H](CC(C)C)NC(=O)[C@H](Cc1c[nH]c2ccccc12)NC(=O)[C@H](CCC(=O)O)NC(=O)[C@@H](NC(=O)[C@H](Cc1ccccc1)NC(=O)[C@H](CCC(=O)O)NC(=O)[C@H](CCCCNC(=O)COCCOCCNC(=O)COCCOCCNC(=O)CC[C@H](NC(=O)CCCCCCCCCCCCCCCCCCC(=O)O)C(=O)O)NC(=O)[C@H](C)NC(=O)[C@H](CCCCN)NC(=O)[C@H](CCCCN)NC(=O)[C@H](CCC(=O)O)NC(=O)[C@H](CC(=O)O)NC(=O)[C@H](CC(C)C)NC(=O)[C@H](Cc1ccc(O)cc1)NC(=O)[C@H](CCCCN)NC(=O)[C@H](CO)NC(=O)[C@H](Cc1ccc(O)cc1)NC(=O)[C@H](CC(=O)O)NC(=O)[C@H](CO)NC(=O)[C@@H](NC(=O)[C@H](Cc1ccccc1)NC(=O)[C@@H](NC(=O)CNC(=O)[C@H](CCC(N)=O)NC(=O)C(C)(C)NC(=O)[C@@H](N)Cc1c[nH]cn1)[C@@H](C)O)[C@@H](C)O)C(C)C)C(=O)N[C@@H](CCC(=O)O)C(=O)NCC(=O)NCC(=O)N1CCC[C@H]1C(=O)N[C@@H](CO)C(=O)N[C@@H](CO)C(=O)NCC(N)=O [Compound 1]
- acetaminophen Cmax, Change From Baseline, Mean (patients with T2DM [1]; Cohort 1, Day 107): 1487.25
- acetaminophen tmax (patients with T2DM [1]; Cohort 1, Day 107): 1.456 h
- acetaminophen tmax (patients with T2DM [1]; Cohort 2, Day 79): 3.302 h
- acetaminophen tmax, Change From Baseline, Mean (patients with T2DM [1]; Cohort 2, Day 79): 0.333 h
- Change from Baseline in HbA1c (patients with T2DM [2]; Cohort 1 (1.5-4.5 mg QW), Day 29, baseline 8.52): −0.70* %
- Change from Baseline in HbA1c (patients with T2DM [2]; Cohort 1, Day 57, baseline 8.52): −1.45* %
- Change from Baseline in HbA1c (patients with T2DM [2]; Cohort 1, Day 78, baseline 8.52): −1.80* %
- Change from Baseline in HbA1c (patients with T2DM [2]; Cohort 1, Day 106 (28 days after last dose), baseline 8.52): −2.03* %
- HbA1c decrease from baseline compared to placebo (patients with T2DM [2]; Cohort 1 and Cohort 2, Day 57 until Day 134): Statistically significant decreases
- Change from Baseline in HbA1c (patients with T2DM [2]; Cohort 2 (2-10 mg QW), Day 43, baseline 8.08): −0.83* %
- Change from Baseline in HbA1c (patients with T2DM [2]; Cohort 2, Day 64, baseline 8.08): −1.35* %
- Change from Baseline in HbA1c (patients with T2DM [2]; Cohort 2, Day 85, baseline 8.08): −1.50* %
- Change from Baseline in HbA1c (patients with T2DM [2]; Cohort 2, Day 106, baseline 8.08): −1.67* %
- SAE reported, MedDRA preferred term (patients with T2DM [3]; in vivo): Sarcoidosis
- abdominal pain, number of participants (patients with T2DM [3]; in vivo): 1
- abdominal pain, percentage of participants (patients with T2DM [3]; in vivo): 5.6%
- constipation, number of participants (patients with T2DM [3]; in vivo): 2
- constipation, percentage of participants (patients with T2DM [3]; in vivo): 11.1%
- diarrhea, number of participants (patients with T2DM [3]; in vivo): 4
- diarrhea, percentage of participants (patients with T2DM [3]; in vivo): 22.2%
- eructation, number of participants (patients with T2DM [3]; in vivo): 4
- eructation, percentage of participants (patients with T2DM [3]; in vivo): 22.2%
- nausea, number of participants (patients with T2DM [3]; in vivo): 7
- nausea, percentage of participants (patients with T2DM [3]; in vivo): 38.9%
- number of patients treated with study intervention reporting an SAE (patients with T2DM [3]; in vivo): 1
- number of patients with TEAEs (patients with T2DM [3]; in vivo): 17
- vomiting, number of participants (patients with T2DM [3]; in vivo): 5
- vomiting, percentage of participants (patients with T2DM [3]; in vivo): 27.8%
- deaths (patients with T2DM [3]; whole study): No deaths occurred
- Vd/F ([4]; human, plasma, sc): 9.52 L
- AUC(0-168)ss, geometric mean (CV %) ([4]; 4.5 mg QW): 106000 (22.5%) ng · h/mL
- Cmax, ss, geometric mean ([4]; 4.5 mg QW): 698 ng/mL
- AUC(0-168)ss, geometric mean (CV %) ([4]; 10 mg QW): 239000 (23.9%) ng · h/mL
- Cmax, ss, geometric mean ([4]; 10 mg QW): 1570 ng/mL
- Absorption rate constant, KA, population mean estimate ([4]; population PK model, 355 concentrations from 18 patients, SC QW): 0.0299 h⁻¹
- overall appetite scores (patients with T2DM [5]; all treatment groups incl. placebo, 12-week or 16-week dosing, higher score = less appetite): generally increase from baseline
- hunger scores (patients with T2DM [5]; both treatment groups, majority of time points): decrease from baseline
- fullness scores (patients with T2DM [5]; [6]): increased from baseline
- satiety scores (patients with T2DM [5]; [6]): decrease from baseline
- VAS appetite assessments (patients with T2DM [5]; higher dose cohort (FIG. 8)): reduced hunger, increased satiety, decreased overall appetite
